Source: PMC7162859 (Scientific Reports, 2020)
Read-outs that look alike come from different tables or passages of the source.

Experiments:
[1] = Rapid equilibrium dialysis for unbound fractions in mouse plasma and brain homogenate; type: in vitro ADME; conditions: FVB, 37 °C
Description: Rapid equilibrium dialysis was used to determine unbound fractions with modifications[48],[49] to manufacturer’s protocol (Thermo Fisher Scientific). Mouse plasma and brain homogenates (in 3 volumes of PBS, w/v) were spiked with 0.1 mg/mL ispinesib to obtain final concentrations of 1 µM. 300 µL of drug-spiked matrices were placed in donor chamber, and 500 µL of PBS was placed in receiver chamber of inserts (8 kDa MWCO), in triplicates. The base plate with inserts was incubated on Bioshaker at 37 °C and 1000 rpm for 4 hours. Ispinesib concentrations in samples were analyzed by liquid-chromatography tandem mass-spectrometry (LC-MS/MS).
The unbound fractions of ispinesib in plasma and brain were determined by using rapid equilibrium dialysis (RED) technique, with some alterations ^1,2 to manufacturer’s protocol (Thermo Fisher Scientific). […] RED experiments were initially conducted at 1, 2, 5 and 10 µM concentrations of ispinesib with 4 and 6 hour time points. […] Consequently, unbound fractions at 1 µM concentration and 4 hr time point were utilized for estimation of Kp,uu and free concentrations of ispinesib. […] The samples collected from the donor and receiver chambers after dialysis for 4 hours were stored at -80°C and analyzed for ispinesib concentrations by LC-MS/MS analysis. […]

GBM1A cells = test: In vitro cytotoxicity assay (CellTiter-Glo, 72 hours); type: cell-based, human; conditions: for EC50: Homo sapiens, 72 h, 72 hours, read-out: Ispinesib EC50
Description: (§1) TP53(−/−) and PTEN(−/−) cells were seeded into 96-well plates (pre-coated with fibronectin) at a density of 5,000 cells per well in DMEM media with 0.5% FBS, 1% nitrogen supplement, 10 ng/ml of FGF and 10 ng/ml of PDGFAA. Human GBM1A cells were seeded into 96 well plates (pre-coated with laminin) in DMEM media with 1% neuroPlex supplement, 20 ng/ml of EGF and 20 ng/ml of […]. After 24 hours (~70% confluency), cells were exposed to ispinesib (n = 10 wells per concentration) from 0.025–1000 nM with or without 500 nM elacridar co-treatment. The plates were incubated for 72 hours, cell viability measured using CellTiter-Glo ATP-based assay, and read on a luminometer. The dose-response data were fit to the Hill equation.
(§2) In vitro potency data was fitted to “log(inhibitor) vs. normalized response - variable slope” equation in GraphPad Prism version 6.04 (GraphPad, La Jolla, CA) to determine half-maximal effective concentration (EC50).

PTEN(-/-) GBM cells = test: as above; type: cell-based, murine; conditions: for EC50: Mus musculus, 72 h, 72 hours, read-out: Ispinesib EC50
Description: as §1, §2

TP53(-/-) GBM cells = test: as above; type: cell-based, murine; conditions: for EC50: Mus musculus, 72 h, 72 hours, read-out: Ispinesib EC50
Description: as §1, §2

orthotopic GBM1A tumors [2] = test: Pharmacodynamics: monopolar spindle formation in orthotopic GBM1A tumors; type: in vivo, NSG mice; conditions: single ip dose 10 mg/kg each drug; 8 hours
Description: Female NSG mice were intracerebrally injected with 500,000 GBM1A cells at coordinates X = 1.5 mm, Y = 1.5 mm and Z = 2.5 mm relative to the bregma, and tumor growth was monitored by bioluminescence imaging. After 4 weeks (tumor size of about 2 × 10^9 photons/sec), animals were randomized to receive single ip dose of microemulsion vehicle, 10 mg/kg elacridar, 10 mg/kg ispinesib, or a combination of 10 mg/kg ispinesib and 10 mg/kg elacridar (n = 8–10). At 8 hours following treatment, mice were perfused and whole brains were isolated. The samples were processed for immunofluorescence by staining for tubulin with an alpha-tubulin antibody (Cell signaling, Cat#2125) and counter staining with DAPI for visualizing nuclei. Images were scanned and counted for cells with monopolar spindles.

orthotopic GBM1A tumors [3] = type: in vivo; conditions: 10 mg/kg ip each drug once every 4 days for 28 days
Description: Female NSG mice were intracranially implanted with 500,000 luciferase expressing GBM1A cells (transduced with lentiviral particles expressing GFP-Luciferase). After 7 days, animals were randomized into four groups and ip administered with microemulsion vehicle, 10 mg/kg elacridar, 10 mg/kg ispinesib, or a combination of 10 mg/kg ispinesib and 10 mg/kg elacridar, once every 4 days for 28 days (n = 10). The dosing schedule of once every 4 days was based on our previously publication with ispinesib. Tumor growth was monitored by bioluminescence imaging and animals were followed for survival.
The progression of tumor growth was monitored by bioluminescence imaging (BLI) using an IVIS system. Mice that underwent stereotactic injection with GFP-luciferase expressing GBM1A cells were imaged twice a week. Ten minutes prior to imaging, mice were intraperitoneally injected with d-luciferin at 75 mg/kg body weight (3 mL/kg injection volume). Animals were immobilized using 1.5% − 3.0% isoflurane provided by nose cones within the imager and were kept warm using a heated stage set at 37 °C during the imaging procedure. Following imaging for about 5 minutes, animals were removed from the IVIS chamber and monitored until they fully recovered from anesthesia.

[4] = FVB wild-type; for Fold increase in Kp: 10 mg/kg i.p. ispinesib with or without 10 mg/kg i.p. elacridar; for increase of brain-to-plasma concentration ratio / brain delivery of ispinesib with elacridar co-administration: 10 mg/kg ip ispinesib + 10 mg/kg elacridar vs ispinesib alone, 2 and 6 hours, 10 mg/kg
Description: (§3) Blood and brain specimens were harvested at 2 and 6 hours post-dose.
(§4) All dosing solutions were prepared on the day of the study. A serial sacrifice (destructive sampling) design was employed for sample collection. In all the pharmacokinetic studies conducted in non-tumor bearing FVB mice, the group size was 4 at each sampling time point (n = 4). At pre-determined time points, mice were euthanized using a carbon dioxide chamber. Blood was collected by cardiac puncture and transferred to sample tubes coated with heparin. The whole brain was isolated from skull and rinsed with ice-cold distilled water, and superficial meninges were removed by blotting with tissue paper. Plasma was separated by centrifugation of blood samples at 3500 rpm and 4°C for 15 minutes. […] All the samples were stored at -80°C, until further analysis. The concentrations of ispinesib in all the samples were analyzed by LC-MS/MS. Assuming a vascular volume of 1.4% in mouse brain ^5, the concentrations in brain were corrected for residual drug in brain vasculature.
Kp=CbrainCplasma (Equation 4)

[5] = GBM-bearing rats; for Fold increase in Kp over the Kp in normal brain of ispinesib treated group: 10 mg/kg ip, 2 hours; for increase in Kp when elacridar is co-administered with ispinesib: vs ispinesib alone
Description: (§5) Blood and brain (tumor-bearing) samples were collected at 2 hours post-dose, and whole brains were immediately flash frozen.
(§6) A fluorescence-guided punch biopsy technique (Supplementary Fig. S2) was developed and employed for isolation of tumor core, tumor rim (brain adjacent to tumor, BAT) and normal (non-tumor) brain regions from brain samples. Briefly, an acrylic adult rat brain matrix (WPI) was used to obtain thick coronal brain sections (1–2 mm thick) through the Td-Tomato labelled tumors. The tumor regions were identified by relative fluorescence signal (Nikon AZ100M microscope), and biospy punches with varying diameters were utilized to isolate tumor core (tumor region with fluorescence signal 5-fold or higher relative to background signal) and rim (region adjacent to tumor core with fluorescence signal 3 to 5-fold higher relative to background) (Supplementary Fig. S3). The samples from individual brains were pooled together for analysis of ispinesib concentrations by LC-MS/MS.
(§7) The tumor-bearing brain samples were harvested at 2 hours post dose (n = 9). Coronal sections that were 1-2 mm thick were obtained using an acrylic brain matrix, and a fluorescence microscopy guided punch biopsy method was utilized for the isolation of tumor core, tumor rim (brain adjacent to tumor, BAT) and normal (non-tumor) brain regions. The tumor core was identified as the tumor region with a fluorescence signal that was 5-fold or higher relative to the background signal. The tumor rim was defined as the region around the tumor core with a fluorescence signal 3 to 5-fold higher relative to the background signal. The brain tissue with a fluorescence signal similar to or lower than the background fluorescence was collected as the normal brain. The samples collected from each brain were pooled together, and ispinesib concentrations were determined using LC-MS/MS.

in vivo [6] = conditions: FVB, mouse, iv, 5 mg/kg
Description: A single intravenous bolus dose of 5 mg/kg ispinesib (vehicle: ethanol, Tween 80 and distilled water in volume ratio of 20:2.5:77.5) was administered to FVB wild-type and Mdr1a/b^−/− Bcrp1^−/− mice. This was followed by collection of whole blood and brain samples at 0.17, 0.5, 1, 2, 4, 8 and 15 hours post-dose, and blood samples were centrifuged to separate plasma for further analysis. […] The drug concentrations in all samples were measured by a specific and sensitive LC-MS/MS assay for ispinesib.
as §4
Kp=AUCbrainAUCplasma (Equation 3)
DA= Kp, knockoutKp, wildtype (Equation 5)
Kp,uu=AUCbrain X fu, brain AUCplasma X fu, plasma (Equation 6)
The pharmacokinetic parameters from the concentration-time profiles in plasma and brain were determined by non-compartmental analysis (NCA) using Phoenix WinNonlin version 6.4 (Certara USA, Inc., Princeton, NJ). The AUCplasma and AUCbrain were calculated using the linear trapezoidal method. The standard errors around the mean of AUC was estimated by the sparse sampling module in WinNonlin ^6.

in vivo [7] = conditions: FVB, mouse, 10 mg/kg; for concentration at 2 h / concentration at 6 h: intraperitoneal
Description: as §3, §4
Kp=CbrainCplasma (Equation 4)

in vivo [8] = conditions: Sprague-Dawley, rat, ip, 10 mg/kg
Description: as §5, §6, §7

[9] = 5 mg/kg iv bolus, Mdr1a/b-/- Bcrp1-/- mice

SMILES: Cc1ccc(C(=O)N(CCCN)[C@@H](c2nc3cc(Cl)ccc3c(=O)n2Cc2ccccc2)C(C)C)cc1 [Ispinesib, N-(3-aminopropyl)-N-[(1 R)-1-(3-benzyl-7-chloro-4-oxoquinazolin-2-yl)-2-methylpropyl]-4-methylbenzamide]
- fraction unbound at 4 h, 1 µM ([1]; mouse brain homogenate, corrected for dilution, read-out: percentage of unbound drug in brain): 0.0005 ± 0.0002
- fraction unbound at 4 h, 1 µM ([1]; mouse plasma, read-out: percentage of unbound drug in plasma): 0.006 ± 0.001
- EC50 (GBM1A cells; [Elacridar] 0 nM): 1.4 ± 0.2 nM
- EC50 (GBM1A cells; [Elacridar] 500 nM): 0.5 ± 0.04 nM
- Hill Coefficient (GBM1A cells; [Elacridar] 0 nM): 1.8 ± 0.3
- Hill Coefficient (GBM1A cells; [Elacridar] 500 nM): 1.7 ± 0.2
- EC50 (PTEN(-/-) GBM cells; [Elacridar] 0 nM): 10 ± 0.9 nM
- EC50 (PTEN(-/-) GBM cells; [Elacridar] 500 nM): 3.3 ± 0.4 nM
- Hill Coefficient (PTEN(-/-) GBM cells; [Elacridar] 0 nM): 0.6 ± 0.02
- Hill Coefficient (PTEN(-/-) GBM cells; [Elacridar] 500 nM): 0.4 ± 0.01
- EC50 (TP53(-/-) GBM cells; [Elacridar] 0 nM): 14.4 ± 1.2 nM
- EC50 (TP53(-/-) GBM cells; [Elacridar] 500 nM): 3.9 ± 0.5 nM
- Hill Coefficient (TP53(-/-) GBM cells; [Elacridar] 0 nM): 0.6 ± 0.02
- Hill Coefficient (TP53(-/-) GBM cells; [Elacridar] 500 nM): 0.4 ± 0.01
- monopolar spindles in tumor core (tubulin/DNA staining) (orthotopic GBM1A tumors [2]): occasional monopoles
- tumor doubling time (bioluminescence, single exponential fit) (orthotopic GBM1A tumors [3]; days 7–37): 9.4 days
- median survival (orthotopic GBM1A tumors [3]; vehicle 61 days): 74 days
- Fold increase in Kp ([4]; 2 hrs): 1
- Fold increase in Kp ([4]; 6 hrs): 1
- increase of brain-to-plasma concentration ratio / brain delivery of ispinesib with elacridar co-administration [4]: approximately 10 fold
- increase of brain-to-plasma concentration ratio / brain delivery of ispinesib with elacridar co-administration ([4]; listed as ispinesb): 10 fold
- Fold increase in Kp over the Kp in normal brain of ispinesib treated group ([5]; Normal brain): 1
- Fold increase in Kp over the Kp in normal brain of ispinesib treated group ([5]; Tumor core): 7
- Fold increase in Kp over the Kp in normal brain of ispinesib treated group ([5]; Tumor rim): 2.5
- increase in Kp when elacridar is co-administered with ispinesib ([5]; tumor core): 4 fold
- increase in Kp when elacridar is co-administered with ispinesib ([5]; tumor rim and normal brain regions): approximately 10 fold
- Kp uu (in vivo [6]; brain and plasma): 0.02
- Kp uu (in vivo [6]; brain/plasma): 1
- AUC(0-inf) (in vivo [6]; plasma): 5800 ng·h/mL
- AUC(0-t) (in vivo [6]; plasma): 7500 ± 400 ng·h/mL
- clearance (in vivo [6]; plasma): 9.9 mL/min/kg
- half-life (in vivo [6]; plasma): 4.8 h
- Kp at 2 h (in vivo [7]; brain and plasma, ip): 0.1 ± 0.08
- Kp at 6 h (in vivo [7]; brain and plasma, ip): 0.38 ± 0.14
- concentration at 2 h (in vivo [7]; brain): 80 ± 20 ng/mL
- concentration at 6 h (in vivo [7]; brain): 270 ± 90 ng/mL
- concentration at 2 h (in vivo [7]; plasma): 1110 ± 570 ng/mL
- concentration at 6 h (in vivo [7]; plasma): 730 ± 110 ng/mL
- Kp at 2 h (in vivo [8]; normal brain): 0.11 ± 0.09
- concentration at 2 h (in vivo [8]; normal brain): 60 ± 40 ng/mL
- Kp at 2 h (in vivo [8]; tumor core): 0.77 ± 0.55
- concentration at 2 h (in vivo [8]; tumor core): 380 ± 240 ng/mL
- Kp at 2 h (in vivo [8]; tumor rim): 0.27 ± 0.18
- concentration at 2 h (in vivo [8]; tumor rim): 150 ± 110 ng/mL
- predicted unbound concentrations in the brain compared with in vitro EC50 against GBM1A (5 mg/kg intravenous, FVB wild-type mice, from in vivo concentrations and fu): appreciably below the EC50
- Kp, brain-to-plasma AUC ratio (total drug) [9]: 12.12
- Kp,uu, unbound partition coefficient [9]: 1.01
- Kp, brain-to-plasma AUC ratio (total drug) (5 mg/kg iv bolus, wild-type mice): 0.23
